For one compound, Kd results are on record in paper PMC7176418 (Science Advances, 2020).

Holding throughout (assay): biolayer interferometry
Common to all, as to format: binding
(In general: Biolayer interferometry detects binding as a change in optical thickness at a sensor tip.)

The target in one assay is T1, Slug (Snail2) (Homo sapiens, UniProt O43623).
T1 sequence (O43623 1-268): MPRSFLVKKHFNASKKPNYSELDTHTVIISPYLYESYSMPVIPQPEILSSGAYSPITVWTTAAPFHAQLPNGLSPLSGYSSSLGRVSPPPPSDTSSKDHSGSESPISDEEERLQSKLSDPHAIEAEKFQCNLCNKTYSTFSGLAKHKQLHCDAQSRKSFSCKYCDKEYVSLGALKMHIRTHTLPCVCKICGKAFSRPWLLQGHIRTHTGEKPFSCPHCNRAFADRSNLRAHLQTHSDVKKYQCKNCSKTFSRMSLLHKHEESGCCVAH

The target in assay [1] is Snail (Homo sapiens, UniProt O95863, R174A).
Sequence of Snail (Homo sapiens, UniProt O95863, R174A) (O95863 whole entry R174A): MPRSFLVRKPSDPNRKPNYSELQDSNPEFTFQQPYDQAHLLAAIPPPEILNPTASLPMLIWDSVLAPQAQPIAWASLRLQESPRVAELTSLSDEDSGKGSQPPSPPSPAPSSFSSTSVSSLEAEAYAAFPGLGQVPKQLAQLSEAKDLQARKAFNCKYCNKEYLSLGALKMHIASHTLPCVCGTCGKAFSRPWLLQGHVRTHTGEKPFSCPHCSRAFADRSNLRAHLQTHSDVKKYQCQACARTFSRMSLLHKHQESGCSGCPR
In assay [2] the target is Snail (Homo sapiens, UniProt O95863).
Sequence of Snail (Homo sapiens, UniProt O95863) (O95863 whole entry): as the sequence (O95863 whole entry R174A) above, with A174R counted along it

The structures appear in SMILES notation.

Take `Cc1cc(Nc2nc(SCc3ccc(C(=O)Nc4ccc(F)cc4N)cc3)nn3cccc23)n[nH]1` [CYD19]: the dissociation constant Kd at Slug (Snail2) came to 600 nM; at Snail [1] it was 3000 nM; at Snail [2], 180 nM.

In general, Kd refers to the concentration at which binding is half-saturated. A high value points to lower affinity.
